# Source: patent publication US20230348475A1, “IMIDAZOPYRIDAZINE AND IMIDAZOPYRAZINE COMPOUNDS AS INHIBITORS OF CDK7” (THE TRANSLATIONAL GENOMICS RESEARCH INSTITUTE, priority 2020, published 2023)
# Where a name gives a salt, the structure may show the parent alone.
# Target: CDK7/CycH/MAT1 (Homo sapiens, UniProt P50613)
# Assay: Kinase Glo (ADP-Glo) biochemical assay, CDK7
# Settings: CDK7/CycH/MAT1 40 ng, ATP 1 μM, 60 minutes at RT, luminescence
# Description: Materials: • Assay Buffer: 50 mM HEPES, 3 mM MgCl2, 3 mM MnCl2, 1 mM DTT, 3 μM Na3VO4, pH 7.5 • Substrate RB • CTF Peptide (ProQinase #: 0040-0000-6) • Enzymes • CDK7/CycH/MAT1 (ProQinase #: 0366-0360-4) • ADP-Glo™ Assay (Promega #: V9101) • ATP: 10 mM • ADP-Glo™ Reagent • Kinase Detection Reagent • 384-well white assay plates
# A ten point serial dilution of compound was prepared at 5X concentration in assay buffer with the final assay concentrations starting at 30 μM, 10 μM, 3 μM, 1 μM . . . 0 μM. Enzyme, substrate, and ATP were used at 40 ng, 200 ng (or 400 ng)* and 1 μM, respectively. The assay plate was set up by mixing the components in a total reaction volume of 10 μL per well. The plate was centrifuged gently for 10 seconds and incubated at room temperature (RT) for 60 minutes in the dark. The ADP-Glo Reagent and kinase detection reagent were added and incubated as recommended. The reaction was quantified by measuring luminescence on the Perkin Elmer Envision plate reader.
# CDK7/CycH/MAT1, sequence (P50613 whole entry): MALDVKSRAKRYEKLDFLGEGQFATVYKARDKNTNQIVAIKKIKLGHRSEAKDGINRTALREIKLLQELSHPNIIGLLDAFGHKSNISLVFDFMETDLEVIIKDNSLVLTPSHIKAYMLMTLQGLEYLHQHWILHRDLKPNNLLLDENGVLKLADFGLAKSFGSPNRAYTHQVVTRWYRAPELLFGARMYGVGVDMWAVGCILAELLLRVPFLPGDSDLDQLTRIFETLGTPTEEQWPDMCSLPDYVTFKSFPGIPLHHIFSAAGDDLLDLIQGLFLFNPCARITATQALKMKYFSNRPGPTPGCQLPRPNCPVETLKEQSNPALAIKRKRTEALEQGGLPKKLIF
# CDK7/CycH/MAT1, sequence (P51946 whole entry partner): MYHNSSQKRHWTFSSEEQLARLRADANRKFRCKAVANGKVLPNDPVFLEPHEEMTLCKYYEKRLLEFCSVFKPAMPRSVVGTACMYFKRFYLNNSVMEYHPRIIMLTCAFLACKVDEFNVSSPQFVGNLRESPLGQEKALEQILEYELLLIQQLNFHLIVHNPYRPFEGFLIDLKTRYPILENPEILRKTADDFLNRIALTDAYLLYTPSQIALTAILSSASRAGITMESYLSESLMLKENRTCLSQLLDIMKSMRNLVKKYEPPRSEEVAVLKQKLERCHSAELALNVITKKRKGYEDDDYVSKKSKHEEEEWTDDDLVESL
# CDK7/CycH/MAT1, sequence (P51948 whole entry partner): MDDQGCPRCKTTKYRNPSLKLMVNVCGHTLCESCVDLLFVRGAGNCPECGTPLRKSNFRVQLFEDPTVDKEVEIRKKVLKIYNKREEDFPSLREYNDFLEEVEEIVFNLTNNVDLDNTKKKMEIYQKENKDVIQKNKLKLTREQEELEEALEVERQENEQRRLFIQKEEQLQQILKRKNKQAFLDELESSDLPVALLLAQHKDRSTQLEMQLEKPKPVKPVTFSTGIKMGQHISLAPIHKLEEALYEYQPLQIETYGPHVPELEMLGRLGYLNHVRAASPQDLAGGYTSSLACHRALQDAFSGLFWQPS
row,Structure (SMILES),IC50 [nM]
1,"CN1CCC[C@@H](Oc2cc(Nc3cccc(F)c3)c3ncc(C4CC4)n3n2)C1 [Compound 4, (R)-3-cyclopropyl-N-(3-fluorophenyl)-6-((1-methylpiperidin-3-yl)oxy)imidazo[1,2-b]pyridazin-8-amine]",> 1000
2,"CN1CCC[C@H](Oc2cc(Nc3cccc(F)c3)c3ncc(C4CC4)n3n2)C1 [Compound 7, (S)-3-cyclopropyl-N-(3-fluorophenyl)-6-((1-methylpiperidin-3-yl)oxy)imidazo[1,2-b]pyridazin-8-amine]",> 1000
3,"c1ccc(CNc2cc(OC3CCNCC3)nn3c(C4CC4)cnc23)cc1 [Compound 14, N-benzyl-3-cyclopropyl-6-(piperidin-4-yloxy)imidazo[1,2-b]pyridazin-8-amine]",100 to 1000
4,"CN1CCC(Oc2cc(NCc3ccccc3)c3ncc(C4CC4)n3n2)CC1 [Compound 15, N-benzyl-3-cyclopropyl-6-((1-methylpiperidin-4-yl)oxy)imidazo [1,2-b] pyridazin-8-amine]",100 to 1000
5,"CN1CCC[C@H](Nc2cc(NCc3ccccc3)c3ncc(C4CC4)n3n2)C1 [Compound 16, (S)-N8-benzyl-3-cyclopropyl-N6-(1-methylpiperidin-3-yl)imidazo[1,2-b]pyridazine-6,8-diamine]",100 to 1000
6,"c1ccc(CNc2cc(NCC3CC4(CCNCC4)O3)nn3c(C4CC4)cnc23)cc1 (centres unmarked) [Compound 17, N6-((1-oxa-7-azaspiro[3.5]nonan-2-yl)methyl)-N8-benzyl-3-cyclopropylimidazo[1,2-b]pyridazine-6,8-diamine]",100 to 1000
7,"c1ccc(CNc2cc(NCCC3CNCCO3)nn3c(C4CC4)cnc23)cc1 (centres unmarked) [Compound 19, N8-benzyl-3-cyclopropyl-N6-(2-(morpholin-2-yl)ethyl)imidazo[1,2-b]pyridazine-6,8-diamine formate]",100 to 1000
8,"O=C(N1CCC(Sc2cc(NCc3ccccc3)c3ncc(C4CC4)n3n2)CC1)C(F)(F)F [Compound 20, 1-(4-((8-(benzylamino)-3-cyclopropylimidazo[1,2-b]pyridazin-6-yl)thio)piperidin-1-yl)-2,2,2-trifluoroethan-1-one]",> 1000
9,"c1ccc(CNc2nc(SC3CCNCC3)cn3c(C4CC4)cnc23)cc1 [Compound 21, N-benzyl-3-cyclopropyl-6-(piperidin-4-ylthio)imidazo[1,2-α]pyrazin-8-amine formate salt]",100 to 1000
10,"CC(C)c1cnc2c(N[C@@H](C)c3ccccc3)cc(OC3CCNCC3)nn12 [Compound 27, hydrochloride]",100 to 1000
11,"CC(C)c1cnc2c(N[C@@H](C)c3ccccc3)cc(NC3CCNCC3)nn12 [Compound 29, (S)-3-isopropyl-N8-(1-phenylethyl)-N6-(piperidin-4-yl)imidazo[1,2-b]pyridazine-6,8-diamine hydrochloride]",100 to 1000
12,"COC(=O)[C@@H](N)CSc1cc(NCc2ccccc2)c2ncc(C3CC3)n2n1 [Compound 30, methyl S-(8-(benzylamino)-3-cyclopropylimidazo[1,2-b]pyridazin-6-yl)-L-cysteinate hydrochloride]",100 to 1000
13,"c1ccc(CNc2nc(NC3CCNCC3)cn3c(C4CC4)cnc23)cc1 [Compound 31, N8-benzyl-3-cyclopropyl-N6-(piperidin-4-yl)imidazo[1,2-α]pyrazine-6,8-diamine hydrochloride]",> 1000
14,"CC(C)c1cnc2c(NCc3ccccc3OC(F)(F)F)cc(OC[C@H]3CNCCO3)nn12 [Compound 47, (R)-3-isopropyl-6-(morpholin-2-ylmethoxy)-N-(2-(trifluoromethoxy)benzyl)imidazo[1,2-b]pyridazin-8-amine hydrochloride]",100 to 1000
15,"CC(C)c1cnc2c(NCc3ccccc3OC(F)(F)F)cc(OC[C@@H]3CNCCO3)nn12 [Compound 49, (S)-3-isopropyl-6-(morpholin-2-ylmethoxy)-N-(2-(trifluoromethoxy)benzyl)imidazo[1,2-b]pyridazin-8-amine hydrochloride]",100 to 1000
16,"CC(C)c1cnc2c(Nc3cccc(F)c3)cc(OC3CCNCC3)nn12 [Compound 50, N-(3-fluorophenyl)-3-isopropyl-6-(piperidin-4-yloxy)imidazo[1,2-b]pyridazin-8-amine hydrochloride]",100 to 1000
17,"CC(C)c1cnc2c(Nc3cccc(C(F)(F)F)c3)cc(SC3CCCNC3)nn12 (centres unmarked) [Compound 57, 3-isopropyl-6-(piperidin-3-ylthio)-N-(3-(trifluoromethyl)phenyl)imidazo[1,2-b]pyridazin-8-amine hydrochloride]",100 to 1000
18,"CC(C)c1cnc2c(Nc3cccc(OC(F)(F)F)c3)cc(SC3CCCNC3)nn12 (centres unmarked) [Compound 58, 3-isopropyl-6-(piperidin-3-ylthio)-N-(3-(trifluoromethoxy)phenyl)imidazo[1,2-b]pyridazin-8-amine hydrochloride]",100 to 1000
19,"CC(C)c1cnc2c(Nc3ccccc3OC(F)(F)F)cc(SC3CCCNC3)nn12 (centres unmarked) [Compound 60, 3-isopropyl-6-(piperidin-3-ylthio)-N-(2-(trifluoromethoxy)phenyl)imidazo[1,2-b]pyridazin-8-amine hydrochloride]",100 to 1000

# Continued, values first:
row,IC50 [nM],Structure (SMILES)
1,< 100,"CC(C)c1cnc2c(NCc3ccccc3)cc(S[C@H]3CCCNC3)nn12 (single isomer, unassigned) [Compound 42, hydrochloride]"
2,100 to 1000,"CN1CCC(Oc2cc(Nc3cccc(F)c3)c3ncc(C4CC4)n3n2)CC1 [Compound 2, 3-cyclopropyl-N-(3-fluorophenyl)-6-((1-methylpiperidin-4-yl)oxy)imidazo[1,2-b]pyridazin-8-amine]"
3,100 to 1000,"CN1CC[C@@H](Oc2cc(Nc3cccc(F)c3)c3ncc(C4CC4)n3n2)C1 [Compound 3, (R)-3-cyclopropyl-N-(3-fluorophenyl)-6-((1-methylpyrrolidin-3-yl)oxy)imidazo[1,2-b]pyridazin-8-amine]"
4,100 to 1000,"CN1CC[C@H](Oc2cc(Nc3cccc(F)c3)c3ncc(C4CC4)n3n2)C1 [Compound 5, (S)-3-cyclopropyl-N-(3-fluorophenyl)-6-((1-methylpyrrolidin-3-yl)oxy)imidazo[1,2-b]pyridazin-8-amine]"
5,100 to 1000,"CN1CC[C@H](Oc2cc(NCc3ccccc3)c3ncc(C4CC4)n3n2)C1 [Compound 8, (S)—N-benzyl-3-cyclopropyl-6-((1-methylpyrrolidin-3-yl)oxy)imidazo[1,2-b]pyridazin-8-amine]"
6,100 to 1000,"CN1CCC[C@@H](Oc2cc(NCc3ccccc3)c3ncc(C4CC4)n3n2)C1 [Compound 9, (R)—N-benzyl-3-cyclopropyl-6-((1-methylpiperidin-3-yl)oxy)imidazo[1,2-b]pyridazin-8-amine]"
7,100 to 1000,"CN1CC[C@@H](Oc2cc(NCc3ccccc3)c3ncc(C4CC4)n3n2)C1 [Compound 10, (R)—N-benzyl-3-cyclopropyl-6-((1-methylpyrrolidin-3-yl)oxy)imidazo[1,2-b]pyridazin-8-amine]"
8,100 to 1000,"CN1CCC[C@H](Oc2cc(NCc3ccccc3)c3ncc(C4CC4)n3n2)C1 [Compound 11, (S)—N-benzyl-3-cyclopropyl-6-((1-methylpiperidin-3-yl)oxy)imidazo[1,2-b]pyridazin-8-amine]"
9,100 to 1000,"c1ccc(CNc2cc(O[C@H]3CCNC3)nn3c(C4CC4)cnc23)cc1 [Compound 12, (S)—N-benzyl-3-cyclopropyl-6-(pyrrolidin-3-yloxy)imidazo[1,2-b]pyridazin-8-amine]"
10,100 to 1000,"c1ccc(CNc2cc(O[C@@H]3CCCNC3)nn3c(C4CC4)cnc23)cc1 [Compound 13, (R)—N-benzyl-3-cyclopropyl-6-(piperidin-3-yloxy)imidazo[1,2-b]pyridazin-8-amine]"
11,< 100,"c1ccc(CNc2cc(SC3CCNCC3)nn3c(C4CC4)cnc23)cc1 [Compound 18, N-benzyl-3-cyclopropyl-6-(piperidin-4-ylthio)imidazo[1,2-b]pyridazin-8-amine hydrochloride]"
12,< 100,"CC(C)c1cnc2c(N[C@@H](C)c3ccccc3)cc(SC3CCCNC3)nn12 (stereo partly drawn) [Compound 28, 3-isopropyl-N-((S)-1-phenylethyl)-6-(piperidin-3-ylthio) imidazo [1,2-b]pyridazin-8-amine hydrochloride]"
13,< 100,"CC(C)c1cnc2c(NCc3c(F)cccc3F)cc(SC3CCNCC3)nn12 [Compound 52, N-(2,6-difluorobenzyl)-3-isopropyl-6-(piperidin-4-ylthio)imidazo[1,2-b]pyridazin-8-amine hydrochloride]"
14,< 100,"CC(C)c1cnc2c(NCc3cccc(OC(F)(F)F)c3)cc(SC3CCNCC3)nn12 [Compound 54, 3-isopropyl-6-(piperidin-4-ylthio)-N-(3-(trifluoromethoxy)benzyl)imidazo[1,2-b]pyridazin-8-amine hydrochloride]"
15,< 100,"CC(C)c1cnc2c(NCc3cccc(C(F)(F)F)c3)cc(SC3CCNCC3)nn12 [Compound 55, 3-isopropyl-6-(piperidin-4-ylthio)-N-(3-(trifluoromethyl)benzyl)imidazo[1,2-b]pyridazin-8-amine hydrochloride]"
16,< 100,"CC(C)c1cnc2c(Nc3c(F)cccc3F)cc(SC3CCCNC3)nn12 (centres unmarked) [Compound 59, N-(2,6-difluorophenyl)-3-isopropyl-6-(piperidin-3-ylthio)imidazo[1,2-b]pyridazin-8-amine hydrochloride]"
